Series [1] in a line: Stability in dog liver microsomes assessed as intrinsic clearance. Type of series: ADME, Canis lupus familiaris, Microsome. To be noted: read-out: CLH. In general terms: Liver microsomes are vesicles of endoplasmic reticulum, rich in cytochrome P450 enzymes.
The subject of series [2] is MOLM-13. The series is described as follows: Induction of cell cycle arrest at G1 phase in human MOLM-13 cells incubated for 24 hrs by PI/RNase staining based flow cytometry. In kind it is functional. To be noted: dose 1-50 nM. In general terms: In flow cytometry, cells or beads pass a laser one at a time.
The nature of series [3]: Stability in human liver microsomes assessed as half life. Type of series: ADME, Microsome.
Series [4] in a line: Cmax in Sprague-Dawley rat at 10 mg/kg, po measured for 24 hrs by LC-MS/MS analysis. Type of series: ADME, organism-based. To be noted: in vivo.
A short description of series [5]: Toxicity in nu/nu mouse xenografted with human MV4-11 cells assessed as damage in liver at 1.25 to 10 mg/kg, po administered daily for 2 weeks by H and E staining based analysis. In kind it is organism-based. To be noted: in vivo, 336 h, dose 1.25-10 mg/kg.
Series [6] concerns Protein cereblon/Receptor-type tyrosine-protein kinase FLT3 (Homo sapiens), P36888+Q96SW2 [UNDEFINED MUTATION]. The series is described as follows: PROTAC activity at CRBN/FLT3-ITD mutant in membrane of human MV4-11 cells assessed as protein degradation at 100 nM measured after 24 hrs by immunofluorescence analysis.

Active and inactive are the calls of the source. No cut-off for these calls is given here.

Sequence of Protein cereblon/Receptor-type tyrosine-protein kinase FLT3 (Homo sapiens), P36888+Q96SW2 [UNDEFINED MUTATION] (P36888 whole entry, looked up, change not shown): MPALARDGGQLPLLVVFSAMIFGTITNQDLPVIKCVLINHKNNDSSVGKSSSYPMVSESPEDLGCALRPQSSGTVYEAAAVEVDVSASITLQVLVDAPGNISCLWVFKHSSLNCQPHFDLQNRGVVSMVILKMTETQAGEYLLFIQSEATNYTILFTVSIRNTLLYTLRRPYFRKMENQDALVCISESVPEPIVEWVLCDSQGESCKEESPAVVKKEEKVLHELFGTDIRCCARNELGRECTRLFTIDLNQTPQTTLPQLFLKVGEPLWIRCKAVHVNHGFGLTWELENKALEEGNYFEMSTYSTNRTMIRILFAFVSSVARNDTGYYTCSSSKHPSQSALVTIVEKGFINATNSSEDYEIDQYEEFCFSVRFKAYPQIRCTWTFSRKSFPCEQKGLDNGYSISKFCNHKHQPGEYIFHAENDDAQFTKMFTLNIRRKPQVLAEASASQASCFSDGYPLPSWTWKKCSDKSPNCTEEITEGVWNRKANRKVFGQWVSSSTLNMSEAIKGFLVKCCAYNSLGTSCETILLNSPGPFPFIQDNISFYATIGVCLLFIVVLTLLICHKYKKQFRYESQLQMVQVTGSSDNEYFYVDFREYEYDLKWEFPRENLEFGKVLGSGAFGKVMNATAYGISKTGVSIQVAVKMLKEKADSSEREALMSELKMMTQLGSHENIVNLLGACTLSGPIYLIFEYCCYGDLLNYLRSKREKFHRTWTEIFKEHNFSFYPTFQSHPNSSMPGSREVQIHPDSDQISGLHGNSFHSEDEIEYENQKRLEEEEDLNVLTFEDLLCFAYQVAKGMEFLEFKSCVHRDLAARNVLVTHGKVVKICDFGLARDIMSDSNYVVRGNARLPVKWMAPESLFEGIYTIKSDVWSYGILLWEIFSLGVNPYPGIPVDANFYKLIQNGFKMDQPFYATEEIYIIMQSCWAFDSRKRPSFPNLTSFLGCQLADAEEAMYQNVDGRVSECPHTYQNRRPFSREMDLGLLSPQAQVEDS
Sequence of Protein cereblon/Receptor-type tyrosine-protein kinase FLT3 (Homo sapiens), P36888+Q96SW2 [UNDEFINED MUTATION] (Q96SW2 whole entry, looked up, change not shown): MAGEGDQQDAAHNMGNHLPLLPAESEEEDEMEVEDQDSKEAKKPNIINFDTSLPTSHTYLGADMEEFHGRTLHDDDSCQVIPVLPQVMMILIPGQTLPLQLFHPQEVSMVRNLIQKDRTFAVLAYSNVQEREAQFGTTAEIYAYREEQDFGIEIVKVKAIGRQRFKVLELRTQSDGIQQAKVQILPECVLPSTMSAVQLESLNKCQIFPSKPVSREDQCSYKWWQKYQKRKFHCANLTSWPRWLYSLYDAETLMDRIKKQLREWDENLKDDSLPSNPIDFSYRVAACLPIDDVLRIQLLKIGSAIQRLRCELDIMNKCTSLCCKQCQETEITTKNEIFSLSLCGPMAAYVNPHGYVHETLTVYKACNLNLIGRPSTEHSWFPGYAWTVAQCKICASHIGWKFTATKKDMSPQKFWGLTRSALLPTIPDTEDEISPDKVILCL

`Cc1c(NC(=O)CN2CCN(CC3CCN(c4ccc5c(c4)C(=O)N(C4CCC(=O)NC4=O)C5=O)CC3)CC2)c[nH]c1/C=C1\C(=O)Nc2ccc(F)cc21` (stereo unspecified): in series [1], the CLint scaled worked out at 1.06 L/h/kg. Also, the Activity result in series [2] was “Dose-Dependent Effect”; in series [5], “Non-Toxic”. For the same compound, the half-life in series [3] amounted to 1.16 h. In series [4], the Cmax is 1.12 µg/mL. For the same compound, the result in series [6] was Active.

In general, half-life refers to how long it takes for the measured level to halve. As usually defined, the Cmax is the peak of the concentration-time curve.

These data come from ChEMBL document CHEMBL5543162, “Discovery of a Novel Orally Bioavailable FLT3-PROTAC Degrader for Efficient Treatment of Acute Myeloid Leukemia and Overcoming Resistance of FLT3 Inhibitors” (J Med Chem, 2024).
